This note sets out measurements from ChEMBL document CHEMBL4665838, “Identification of a novel orally bioavailable NLRP3 inflammasome inhibitor” (Bioorg Med Chem Lett, 2020).

Active and inactive are the calls of the source. No cut-off for these calls is given here. A value given as a limit tells only on which side of the number the result lay.

In series [1] the target is T1, NACHT, LRR and PYD domains-containing protein 3 (Homo sapiens, UniProt Q96P20). The series can be described thus: Inhibition of NLRP3 in human THP1 cells assessed as inhibition of IL-1beta production at 1 uM relative to control. It is filed as cell-based. As to conditions: THP-1.
The target in series [2] is T1, NACHT, LRR and PYD domains-containing protein 3. The series can be described thus: Inhibition of NLRP3 in human THP1 cells assessed as inhibition of IL-1beta production. It is filed as cell-based, THP-1.
The target in another series is Cytochrome P450 2C9 (Homo sapiens, UniProt P11712). The series can be described thus: Inhibition of CYP2C9 (unknown origin). It is filed as ADME.
Series [3] in a line: Terminal half life in C57BL/6 mouse at 3 mg/kg, po. It is filed as ADME, organism-based. The following applies: in vivo, read-out: beta t1/2 (converted).
A short description of series [4]: Clearance in C57BL/6 mouse at 1 mg/kg, iv. It is filed as ADME, organism-based. As to conditions: in vivo.
A short description of series [5]: Metabolic stability in rat liver microsomes. It is filed as ADME, Microsome.
The nature of series [6]: AUC (0 to t) in C57BL/6 mouse at 1 mg/kg, iv. It is filed as ADME, organism-based. As to conditions: in vivo. More on the design: dose 1 mg/kg.
Series [7] is described as follows: MRT in C57BL/6 mouse at 1 mg/kg, iv. It is filed as ADME, organism-based. The following applies: in vivo.
Series [8] is described as follows: Tmax in C57BL/6 mouse at 3 mg/kg, po. It is filed as ADME, organism-based. The following applies: in vivo.
The next series deals with T2, Cytochrome P450 2C8 (Homo sapiens, UniProt P10632).
T2 sequence (P10632 whole entry): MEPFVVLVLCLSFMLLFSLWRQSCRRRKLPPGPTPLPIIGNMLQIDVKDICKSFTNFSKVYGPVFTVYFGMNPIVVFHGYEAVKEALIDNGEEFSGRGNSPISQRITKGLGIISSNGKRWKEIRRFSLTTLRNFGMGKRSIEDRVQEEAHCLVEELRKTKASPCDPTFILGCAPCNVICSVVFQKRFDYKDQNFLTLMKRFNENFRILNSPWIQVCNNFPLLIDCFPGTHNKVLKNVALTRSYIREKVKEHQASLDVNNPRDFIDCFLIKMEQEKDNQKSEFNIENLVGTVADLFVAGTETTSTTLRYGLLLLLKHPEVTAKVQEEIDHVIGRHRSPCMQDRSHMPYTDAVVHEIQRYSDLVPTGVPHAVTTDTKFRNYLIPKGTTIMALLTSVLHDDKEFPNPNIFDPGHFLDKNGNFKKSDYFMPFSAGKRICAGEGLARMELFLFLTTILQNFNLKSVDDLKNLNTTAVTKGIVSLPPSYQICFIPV
The series can be described thus: Inhibition of CYP2C8 (unknown origin). It is filed as ADME.

Series [9] in a line: Volume of distribution at steady state in C57BL/6 mouse at 1 mg/kg, iv. It is filed as ADME, organism-based. As to conditions: in vivo, read-out: Vdss.
The nature of series [10]: MRT in C57BL/6 mouse at 3 mg/kg, po. It is filed as ADME, organism-based. As to conditions: in vivo.
Series [11] deals with T3, Interferon-inducible protein AIM2 (Homo sapiens) (UniProt O14862).
T3 sequence (whole entry): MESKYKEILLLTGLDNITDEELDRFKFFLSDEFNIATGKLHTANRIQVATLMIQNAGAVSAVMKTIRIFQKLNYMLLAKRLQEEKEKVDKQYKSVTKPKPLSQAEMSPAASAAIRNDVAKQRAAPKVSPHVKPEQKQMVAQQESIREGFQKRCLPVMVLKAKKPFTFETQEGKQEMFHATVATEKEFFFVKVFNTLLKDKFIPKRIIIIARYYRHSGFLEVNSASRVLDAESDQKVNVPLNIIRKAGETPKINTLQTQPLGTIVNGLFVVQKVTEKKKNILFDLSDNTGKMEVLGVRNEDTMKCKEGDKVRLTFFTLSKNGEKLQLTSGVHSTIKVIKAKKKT
The series can be described thus: Inhibition of AIM2 inflammasome (unknown origin).

Series [12] can be described thus: Metabolic stability in mouse liver microsomes. It is filed as ADME, Microsome.
The nature of series [13]: AUC (0 to t) in C57BL/6 mouse at 3 mg/kg, po. It is filed as ADME, organism-based. More on the design: dose 3 mg/kg. As to conditions: in vivo.
A short description of series [14]: Metabolic stability in dog liver microsomes. It is filed as ADME, Canis lupus familiaris, Microsome.
Series [15] in a line: Oral bioavailability in C57BL/6 mouse at 3 mg/kg. It is filed as ADME, organism-based. As to conditions: in vivo.
A short description of series [16]: Aqueous solubility of the compound. As to conditions: buffer. It is filed as physicochemical.
The nature of series [17]: Cmax in C57BL/6 mouse at 3 mg/kg, po. It is filed as ADME, organism-based. More on the design: route oral, dose 3 mg/kg. The following applies: in vivo.
The nature of series [18]: Terminal half life in C57BL/6 mouse at 1 mg/kg, iv. It is filed as ADME, organism-based. The following applies: in vivo, read-out: beta t1/2 (converted).
Series [19] can be described thus: Permeability in human Caco2 cells. It is filed as ADME, cell-based. The following applies: caco-2.
Series [20] can be described thus: Initial plasma concentration in C57BL/6 mouse at 1 mg/kg, iv. It is filed as ADME, organism-based.
A short description of series [21]: Metabolic stability in human liver microsomes. It is filed as ADME, Microsome.

T1 sequence (Q96P20 whole entry, the tested form may be a part): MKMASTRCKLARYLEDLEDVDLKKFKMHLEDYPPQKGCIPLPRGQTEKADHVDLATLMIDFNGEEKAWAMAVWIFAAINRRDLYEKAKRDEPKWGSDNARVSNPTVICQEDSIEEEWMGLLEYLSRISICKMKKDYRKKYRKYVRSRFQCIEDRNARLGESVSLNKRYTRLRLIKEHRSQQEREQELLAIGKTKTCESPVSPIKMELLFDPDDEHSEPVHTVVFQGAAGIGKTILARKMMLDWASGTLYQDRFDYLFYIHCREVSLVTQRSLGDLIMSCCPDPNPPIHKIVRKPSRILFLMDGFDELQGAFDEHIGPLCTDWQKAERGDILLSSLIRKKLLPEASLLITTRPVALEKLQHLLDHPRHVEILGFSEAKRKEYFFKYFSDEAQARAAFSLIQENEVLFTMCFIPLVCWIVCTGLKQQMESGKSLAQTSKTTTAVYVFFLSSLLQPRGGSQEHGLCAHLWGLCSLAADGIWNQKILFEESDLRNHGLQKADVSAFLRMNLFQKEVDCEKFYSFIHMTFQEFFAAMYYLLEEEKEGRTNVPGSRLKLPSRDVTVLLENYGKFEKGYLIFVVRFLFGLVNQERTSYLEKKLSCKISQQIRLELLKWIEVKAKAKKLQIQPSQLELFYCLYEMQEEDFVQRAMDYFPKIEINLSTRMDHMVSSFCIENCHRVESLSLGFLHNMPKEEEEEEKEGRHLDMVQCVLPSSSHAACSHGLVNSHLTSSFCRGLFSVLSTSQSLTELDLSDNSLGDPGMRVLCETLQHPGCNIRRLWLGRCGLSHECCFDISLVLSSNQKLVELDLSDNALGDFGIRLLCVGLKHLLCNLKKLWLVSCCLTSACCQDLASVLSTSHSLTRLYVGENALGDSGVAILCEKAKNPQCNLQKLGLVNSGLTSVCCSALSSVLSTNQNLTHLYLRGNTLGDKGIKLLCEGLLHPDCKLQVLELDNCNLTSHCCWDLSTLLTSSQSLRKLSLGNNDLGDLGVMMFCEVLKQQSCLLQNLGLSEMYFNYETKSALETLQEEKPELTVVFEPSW
Chain of Cytochrome P450 2C9 (P11712 whole entry): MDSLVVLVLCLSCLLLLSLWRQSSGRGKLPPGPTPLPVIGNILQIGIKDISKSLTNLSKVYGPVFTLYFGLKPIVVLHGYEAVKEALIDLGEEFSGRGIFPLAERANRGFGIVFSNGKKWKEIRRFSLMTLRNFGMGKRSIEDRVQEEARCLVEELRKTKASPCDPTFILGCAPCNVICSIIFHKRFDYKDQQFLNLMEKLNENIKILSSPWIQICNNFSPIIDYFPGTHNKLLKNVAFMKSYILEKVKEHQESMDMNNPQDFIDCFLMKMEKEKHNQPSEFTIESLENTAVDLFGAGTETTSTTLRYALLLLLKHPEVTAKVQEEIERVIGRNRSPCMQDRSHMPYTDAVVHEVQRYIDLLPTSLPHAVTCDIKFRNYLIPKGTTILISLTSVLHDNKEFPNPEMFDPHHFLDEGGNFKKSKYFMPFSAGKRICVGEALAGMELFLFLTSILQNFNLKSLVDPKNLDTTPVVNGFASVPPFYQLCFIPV

Consider `O=C(Nc1ccccc1C(F)(F)F)NS(=O)(=O)/C=C/c1nccs1`, for which the inhibition in [1] was less than 50%. In addition, in series [2], the IC50 was greater than 1000 nM.
For `CC(C)c1cccc(C(C)C)c1NC(=O)NS(=O)(=O)/C=C/c1nccs1`, the inhibition in series [1] was less than 50%. Besides, the IC50 in series [2] was greater than 1000 nM.
In the same order, the values of `O=C(Nc1c2c(cc3c1CCC3)CCC2)NS(=O)(=O)/C=C/c1nc2ccccc2s1` are less than 50% and greater than 1000 nM.
Regarding `O=C(Nc1c2c(cc3c1OCC3)OCC2)NS(=O)(=O)/C=C/c1nccs1`, in series [1], the inhibition was less than 50%.
Turning to `Cc1cc(C)c(C)c(NC(=O)NS(=O)(=O)/C=C/c2nccs2)c1C`, the inhibition in series [1] was less than 50%. For the same compound, the concentration for half-maximal inhibition (IC50) in series [2] was greater than 1000 nM.
Take `Cc1cnc(/C=C/S(=O)(=O)NC(=O)Nc2c3c(cc4c2CCC4)CCC3)s1`: the IC50 in series [2] was determined as 1060 nM.
As to `O=C(Nc1cc(C(F)(F)F)ccc1C(F)(F)F)NS(=O)(=O)/C=C/c1nccs1`, in series [1], the inhibition is less than 50%. The concentration for half-maximal inhibition (IC50) in [2] was greater than 1000 nM.
In the case of `COc1cccc(OC)c1NC(=O)NS(=O)(=O)/C=C/c1nccs1`, in [1], the inhibition was less than 50%. For the same compound, the 50% inhibitory concentration (IC50) in series [2] is greater than 1000 nM.
Take `O=C(Nc1c2c(cc3c1CCC3)CCC2)NS(=O)(=O)/C=C/c1nccs1`: the “inhibition (INH)” value at Cytochrome P450 2C9 and on Cytochrome P450 2C8 was “Active” throughout. The results for the half-life in series [3] and in series [18] were 2.86 h and 2.35 h, respectively. In [4], this compound came in with a clearance of 1.01 mL/min/kg. For the same compound, the Stabilty result in series [5], in [12], in [14] and in series [21] was “Stable” in each case. Moreover, the AUC(0-t) in [6] turned out to be 16500 ng·h/mL; in series [13], 48900 ng·h/mL. The MRT in series [7] amounted to 3.23 h; in series [10] it was 4.9 h. Further, the Tmax in [8] stood at 0.25 h. Besides, in [9], the Vd stood at 0.2 L/kg. Besides, the inhibition result in series [11] was “inactive”. This compound also showed a F in [15] of 99%. Further, the solubility entry in [16] is recorded as “Soluble”. Besides, in [17], the highest level (Cmax) was 8490 ng/mL. For the same compound, the permeability result in series [19] was “Permeable”. Besides, the C0 in [20] came to 6270 ng/mL.
Consider `O=C(Nc1c2c(cc3c1CCC3)CCC2)NS(=O)(=O)/C=C/c1ccccn1`, for which, in [2], the IC50 is 1000 nM.
`O=C(Nc1c(F)cccc1C(F)(F)F)NS(=O)(=O)/C=C/c1nccs1`: the inhibition in series [1] is less than 50%. The IC50 in series [2] was greater than 1000 nM.
As for `CC(C)(O)c1coc(S(=O)(=O)NC(=O)Nc2c3c(cc4c2CCC4)CCC3)c1`, the figures for the half-life in [3] and in [18] were 1.32 h and 3.97 h, respectively. This compound also yielded a clearance in [4] of 0.8 mL/min/kg. Further, the AUC(0-t) turned out to be 20700 ng·h/mL in [6] and 46900 ng·h/mL in series [13]. The MRT in [7] came out at 3.22 h; in [10], 3.07 h. Further, the Tmax in series [8] came to 0.25 h. Moreover, in series [9], the Vd is 0.15 L/kg. This compound also came in with a F in series [15] of 77%. In [17], the concentration peaked (Cmax) at 11700 ng/mL. This compound came in with a C0 in series [20] of 22200 ng/mL.
